# Laboratory results from patent US10189809B2, “SGC stimulators” (Ironwood Pharmaceuticals, Inc., priority 2010, dated 2019).
# Columns and labels:
# [1] = target: T1, Human soluble guanylate cyclase enzyme (hsGC) (Homo sapiens (Human), UniProt Q02108+Q02153); experiment: Purified human sGC enzyme synergy assay in the presence of 1 μM sodium nitroprusside (SNP); format: biochemical; conditions: with 1 μM SNP; for sGC Enzyme (fold increase at 10 μM with SNP): 10 μM compound; for sGC Enzyme (fold increase at 30 μM with SNP): 30 μM compound
# Method: Human soluble guanylate cyclase enzyme (hsGC) obtained from Enzo Inc. (P/N: ALX-201-177) was used to evaluate the activity of test compounds. The assay reactions contained 0.1 M Tris (pH 8.0), 0.5 mg/mL BSA (pH 8.0), 2 mM DTT, 2 mM MgCl2, 300 μM GTP, 1 mM 3-isobutyl-1-methylxanthine (IBMX) and 5 ng human soluble guanylate cyclase enzyme. Test compounds in DMSO were then added (2 μL, 10 or 30 μM final concentration) and incubated (200 μL, 96-well plate format) at 37° C. for 30 minutes. The controls were carried out using 2 μL DMSO. After the 30 minute incubation, the reaction was stopped with the addition of 200 μL of cold methanol. The plate was then centrifuged at 3,200 rpm for 10 minutes at room temperature. Supernatants (200 μL) were collected and transferred to a new 96 well plate for analysis.
# An 8 point cGMP (Sigma-Aldrich P/N: G6129) standard curve was prepared in assay buffer ranging from 0.156-20 μM. Samples for the cGMP standard curve were then diluted with an equal volume of methanol resulting in final cGMP concentrations of 0.078-10 μM.
# The cGMP standard curve was generated using GraphPad Prism Software.
# Calculations: Specific Activity was determined by the amount of cGMP formed (nmoles) per mg of sGC per min. Enzyme “fold-change” was calculated by dividing Specific Activity for test compounds by Specific Activity of DMSO controls.
# Enzyme assays were performed as described above, but was done in the presence of 1 μM sodium nitroprusside (SNP).
# [2] = target: soluble guanylate cyclase (sGC) (Homo sapiens (Human), UniProt Q02108+Q02153); experiment: sGC-HEK-cGMP assay run with SNP incubation (HEK WC assay); format: cell-based; conditions: for Emax at 10 µM: read-out: HEK WC Assay (% Emax at 10 uM/with 10 uM SNP); for Emax at 30 µM: read-out: HEK WC Assay (% Emax at 30 uM/with 10 uM SNP)
# How it was run: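 EC50 values derive from concentration-response curves of intracellular cGMP in HEK293 cells, which express sGC endogenously. Compound and sodium nitroprusside were co-incubated 10 min at 37 °C after a 15-min 0.5 mM IBMX step, with 0.1 M HCl lysis and 1% DMSO vehicle.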
# [3] = target: T1, Human soluble guanylate cyclase enzyme (hsGC); experiment: Purified human sGC enzyme activity assay; format: biochemical; conditions: for sGC Enzyme (specific activity at 10 μM) / sGC Enzyme (fold increase at 10 μM without SNP): 10 μM compound; for sGC Enzyme (specific activity at 30 μM) / sGC Enzyme (fold increase at 30 μM without SNP): 30 μM compound
# How it was run: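 Values are fold-change of sGC specific activity, nmoles cGMP per mg enzyme per min, relative to DMSO controls. Reactions: 5 ng human enzyme, 300 μM GTP, 1 mM IBMX, 2 mM MgCl2/DTT, 0.1 M Tris pH 8.0, compound 10 or 30 μM final, 37° C for 30 minutes, methanol quench. cGMP read against a 0.078-10 μM final standard curve.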
# Chain of soluble guanylate cyclase (sGC) (Q02153 whole entry): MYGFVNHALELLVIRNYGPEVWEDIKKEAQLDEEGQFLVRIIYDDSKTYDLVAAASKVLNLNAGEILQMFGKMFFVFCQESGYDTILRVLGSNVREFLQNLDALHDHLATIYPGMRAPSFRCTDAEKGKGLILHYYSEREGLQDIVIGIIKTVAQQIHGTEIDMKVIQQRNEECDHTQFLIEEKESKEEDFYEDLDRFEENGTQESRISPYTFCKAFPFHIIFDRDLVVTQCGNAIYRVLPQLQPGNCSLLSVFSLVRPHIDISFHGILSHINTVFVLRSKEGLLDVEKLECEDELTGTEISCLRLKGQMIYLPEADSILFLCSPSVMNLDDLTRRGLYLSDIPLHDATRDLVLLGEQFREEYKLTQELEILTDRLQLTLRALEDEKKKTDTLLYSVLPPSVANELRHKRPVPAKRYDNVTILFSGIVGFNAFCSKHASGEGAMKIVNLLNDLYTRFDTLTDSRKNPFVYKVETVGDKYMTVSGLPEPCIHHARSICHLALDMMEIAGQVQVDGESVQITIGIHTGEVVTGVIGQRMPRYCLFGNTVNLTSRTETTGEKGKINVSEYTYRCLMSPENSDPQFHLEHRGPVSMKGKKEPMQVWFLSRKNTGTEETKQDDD
# Chain of soluble guanylate cyclase (sGC) (Q02108 whole entry): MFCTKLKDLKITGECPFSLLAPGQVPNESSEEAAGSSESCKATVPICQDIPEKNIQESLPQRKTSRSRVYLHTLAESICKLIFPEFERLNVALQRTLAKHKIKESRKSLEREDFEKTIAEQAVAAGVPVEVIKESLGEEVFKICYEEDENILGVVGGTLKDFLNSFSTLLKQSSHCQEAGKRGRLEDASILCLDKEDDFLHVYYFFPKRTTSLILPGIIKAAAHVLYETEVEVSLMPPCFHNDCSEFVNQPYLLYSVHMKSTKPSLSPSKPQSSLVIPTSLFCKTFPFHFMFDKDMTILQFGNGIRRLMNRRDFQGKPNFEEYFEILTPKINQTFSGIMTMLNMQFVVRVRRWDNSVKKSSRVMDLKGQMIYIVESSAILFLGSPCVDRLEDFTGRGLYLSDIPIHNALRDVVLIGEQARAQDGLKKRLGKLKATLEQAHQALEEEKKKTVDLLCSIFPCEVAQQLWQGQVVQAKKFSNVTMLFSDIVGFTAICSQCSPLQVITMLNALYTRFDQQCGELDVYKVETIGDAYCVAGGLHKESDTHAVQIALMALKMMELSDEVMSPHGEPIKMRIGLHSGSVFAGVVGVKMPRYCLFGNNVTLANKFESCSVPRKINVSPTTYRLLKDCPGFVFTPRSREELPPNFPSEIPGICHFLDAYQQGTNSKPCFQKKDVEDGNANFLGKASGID
# T1 sequence (Q02153 whole entry): as the sequence (Q02153 whole entry) above
# T1 sequence (Q02108 whole entry): as the sequence (Q02108 whole entry) above
Structure (SMILES),sGC Enzyme (fold increase at 10 μM with SNP) [1],sGC Enzyme (fold increase at 30 μM with SNP) [1],Emax at 10 µM [2] [%],Emax at 30 µM [2] [%],sGC Enzyme (specific activity at 10 μM) [3],sGC Enzyme (fold increase at 10 μM without SNP) [3],sGC Enzyme (specific activity at 30 μM) [3],sGC Enzyme (fold increase at 30 μM without SNP) [3]
Fc1ccccc1Cn1nc(-c2ccccn2)cc1C1CCCCC1 [Compound I-48],B (B = 2 to <5 fold increase),C (C = 5 to <10 fold increase),0 to 10,0 to 10,D (D = 200 to <500),B (B = 2 to <5 fold increase),E (E = 500 to <1000),B (B = 2 to <5 fold increase)
"Fc1ccccc1Cn1nc(-c2ccccn2)cc1-c1ccc(Br)cn1 [Compound I-51, 5-bromo-2-(1-(2-fluorobenzyl)-3-(pyridin-2-yl)-1H-pyrazol-5-yl)pyridine]",A (A = no increase to <2 fold increase),A (A = no increase to <2 fold increase),0 to 10,0 to 10,,A (A = no increase to <2 fold increase),,A (A = no increase to <2 fold increase)
"Fc1ccccc1Cn1nc(-c2ccc(Br)cn2)cc1-c1ccccn1 [Compound I-52, 5-bromo-2-(1-(2-fluorobenzyl)-5-(pyridin-2-yl)-1H-pyrazol-3-yl)pyridine]",A (A = no increase to <2 fold increase),A (A = no increase to <2 fold increase),0 to 10,0 to 10,,A (A = no increase to <2 fold increase),,A (A = no increase to <2 fold increase)
Fc1ccccc1Cn1nc(-c2ccccn2)c(I)c1-c1ccccn1 [Compound I-53],A (A = no increase to <2 fold increase),A (A = no increase to <2 fold increase),0 to 10,0 to 10,,A (A = no increase to <2 fold increase),,A (A = no increase to <2 fold increase)
"N#Cc1c(-c2ccccn2)nn(Cc2ccccc2F)c1-c1ccccn1 [Compound I-54, 1-(2-fluorobenzyl)-3,5-di(pyridin-2-yl)-1H-pyrazole-4-carbonitrile]",A (A = no increase to <2 fold increase),A (A = no increase to <2 fold increase),0 to 10,0 to 10,,A (A = no increase to <2 fold increase),,A (A = no increase to <2 fold increase)
Cc1cc(-c2ccccn2)nn1Cc1ccccc1F [Compound I-55],B (B = 2 to <5 fold increase),B (B = 2 to <5 fold increase),10 to 20,20 to 40,,A (A = no increase to <2 fold increase),,B (B = 2 to <5 fold increase)
Cc1ccc(-c2cc(-c3ccccn3)nn2Cc2ccccc2F)nc1 [Compound I-56],A (A = no increase to <2 fold increase),A (A = no increase to <2 fold increase),0 to 10,0 to 10,B (B = 50 to <100),A (A = no increase to <2 fold increase),B (B = 50 to <100),A (A = no increase to <2 fold increase)
Cc1ccc(-c2cc(-c3ccccn3)n(Cc3ccccc3F)n2)nc1 [Compound I-57],A (A = no increase to <2 fold increase),B (B = 2 to <5 fold increase),0 to 10,0 to 10,B (B = 50 to <100),A (A = no increase to <2 fold increase),B (B = 50 to <100),A (A = no increase to <2 fold increase)
Cc1ccc(-c2c(Br)c(-c3ncccn3)nn2Cc2ccccc2F)cc1 [Compound I-58],B (B = 2 to <5 fold increase),B (B = 2 to <5 fold increase),0 to 10,0 to 10,B (B = 50 to <100),A (A = no increase to <2 fold increase),B (B = 50 to <100),B (B = 2 to <5 fold increase)
Fc1ccccc1Cn1nc(-c2ncccn2)cc1-c1ccccc1F [Compound I-59],B (B = 2 to <5 fold increase),C (C = 5 to <10 fold increase),0 to 10,0 to 10,B (B = 50 to <100),B (B = 2 to <5 fold increase),C (C = 100 to <200),B (B = 2 to <5 fold increase)
COc1ccc(-c2cc(-c3ncccn3)nn2Cc2ccccc2F)cc1 [Compound I-60],A (A = no increase to <2 fold increase),A (A = no increase to <2 fold increase),0 to 10,0 to 10,B (B = 50 to <100),A (A = no increase to <2 fold increase),C (C = 100 to <200),B (B = 2 to <5 fold increase)
Fc1ccccc1Cn1nc(-c2ccccn2)c(Br)c1-c1ccccn1 [Compound I-62],A (A = no increase to <2 fold increase),A (A = no increase to <2 fold increase),0 to 10,0 to 10,B (B = 50 to <100),A (A = no increase to <2 fold increase),B (B = 50 to <100),A (A = no increase to <2 fold increase)
Fc1ccccc1Cn1nc(-c2ccccn2)c(Cl)c1-c1ccccn1 [Compound I-63],A (A = no increase to <2 fold increase),A (A = no increase to <2 fold increase),0 to 10,0 to 10,B (B = 50 to <100),A (A = no increase to <2 fold increase),B (B = 50 to <100),A (A = no increase to <2 fold increase)
Fc1ccccc1Cn1nc(-c2ccccn2)c(Br)c1C1CCC1 [Compound I-64],A (A = no increase to <2 fold increase),B (B = 2 to <5 fold increase),0 to 10,0 to 10,A (A = 0 to <50),A (A = no increase to <2 fold increase),B (B = 50 to <100),A (A = no increase to <2 fold increase)
Cc1ccc(-c2cc(-c3ncccn3)nn2Cc2ccccc2F)cc1 [Compound I-65],B (B = 2 to <5 fold increase),C (C = 5 to <10 fold increase),0 to 10,0 to 10,B (B = 50 to <100),B (B = 2 to <5 fold increase),C (C = 100 to <200),B (B = 2 to <5 fold increase)
Cc1ccc(-c2c(Br)c(-c3ccccn3)nn2Cc2ccccc2F)cc1 [Compound I-67],A (A = no increase to <2 fold increase),A (A = no increase to <2 fold increase),0 to 10,0 to 10,C (C = 100 to <200),A (A = no increase to <2 fold increase),D (D = 200 to <500),A (A = no increase to <2 fold increase)
